29 compounds from PubChem BioAssay (NCI) can be followed below.

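Five concentrations, 48 hours, 96-well plates. At the GI50, growth is halved. TGI denotes the concentration required for complete inhibition of growth.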

Experiment in all cases: growth of human tumour cells (NCI), 48 h
Experiment [1] relates to CAKI-1 renal.
Experiment [2] concerns K-562 leukemia.
Experiment [3] concerns KM20L2 colon.
Experiment [4] deals with M19-MEL melanoma.
For experiment [5], the system named is MOLT-4 leukemia.
The subject of experiment [6] is NCI-H226 lung.
Experiment [7] has as its system SK-MEL-5 melanoma.
Experiment [8] relates to SK-OV-3 ovarian.
Experiment [9] deals with SNB-75 CNS.
Experiment [10] has as its system MCF7 breast.

For the compound `Cc1ccc(SCC(O)=C2C(=O)CCCC2=O)cc1`, the TGI in [1], in [2], in experiment [3], in experiment [4], in experiment [5] and in experiment [6] was over 100 µM each time. In addition, the TGI in experiment [7], in experiment [8] and in experiment [9] was over 100 µM throughout.
Regarding `Cc1cc(Cl)ccc1NC(=O)CCCC(=O)C(C(=O)c1ccccc1)c1ccccc1` (stereo unspecified), the TGI in [1], in [2], in experiment [3], in [4], in [5] and in [8] was over 100 µM in each case.
Turning to `O=C(O)Cc1cc(=O)[nH]c2c1C(=O)CCC2`, the TGI in [2], in experiment [3], in [4], in experiment [5], in experiment [6] and in experiment [7] was over 100 µM each time. Also, in experiment [8], the TGI is over 100 µM.
In the case of `CN(CCN(C)C(=O)CCn1ccc(=O)[nH]c1=O)C(=O)CCn1ccc(=O)[nH]c1=O`, the TGI in [2], in [3], in experiment [4], in experiment [5], in experiment [6] and in experiment [7] was over 100 µM throughout. In experiment [9], this compound yielded a TGI of over 100 µM.
Regarding `COc1cc(C(=O)C/C(CCC(=O)Nc2ccc(Cl)cc2Cl)=N/Nc2nnc(C)n2N)ccc1O`, the TGI in [1], in [3], in experiment [4], in experiment [6], in experiment [7] and in experiment [8] was over 100 µM in each case. Also, in experiment [9], the TGI was over 100 µM.
Take `O=c1cccccc1NCCNc1cccccc1=O`: the TGI in experiment [1], in experiment [2], in experiment [3], in [4], in experiment [5] and in experiment [6] was over 100 µM throughout. In experiment [8], this compound had a TGI of over 100 µM.
As to `Cc1ccc(C)c2c1CCc1cc3ccccc3nc1-2`, the TGI in [1], in [2], in experiment [3], in experiment [4], in experiment [5] and in [7] was over 100 µM each time. Besides, the TGI in experiment [8] and in experiment [9] was over 100 µM in each case.
For `CCCCN(CCCC)C(=O)C(=O)CC(=O)/C=C/c1ccccc1`, the TGI in [1], in experiment [2], in [3], in experiment [4], in experiment [5] and in experiment [6] was over 100 µM throughout. In addition, the TGI in experiment [7], in experiment [8] and in experiment [9] was over 100 µM throughout.
With `N[C@H](C(=O)O)[C@@H](Cl)CC(=O)O`, the TGI in experiment [1], in [2], in experiment [3], in experiment [4], in experiment [5] and in experiment [6] was over 100 µM throughout. Further, the TGI in experiment [7], in experiment [8] and in experiment [9] was over 100 µM in each case.
Regarding `COc1cc(C2(C)SCCCS2)c(I)c(OC)c1OC`, the TGI in experiment [1], in [2], in experiment [3], in [4], in experiment [5] and in [6] was over 100 µM in each case. The TGI in [7], in experiment [8] and in experiment [9] was over 100 µM each time.
Regarding `CCCCCCCCCCCCCCC(O)C1CCC(C(O)CCC(O)CCCCCC(O)CC2=CC(C)OC2=O)O1` (stereo unspecified), the TGI in [1] was determined as 20.8 µM; in experiment [2] it was 3.68 µM; in experiment [3], 18.3 µM; in experiment [4], 11.2 µM; in experiment [5], 3.14 µM; in [6], 7.27 µM. The figures for the TGI in experiment [7], in [8] and in experiment [9] were 2.3 µM, 15 µM and 8.88 µM, respectively.
Regarding `COC(=O)/C(=N/O)C(C(=O)OC)C(=O)C(=O)Nc1c(Cl)cc(C)cc1S(=O)(=O)O` (stereo unspecified), the TGI in [1], in [2], in [3], in [4], in experiment [5] and in experiment [6] was over 100 µM each time. Further, the TGI in experiment [7], in experiment [8] and in [9] was over 100 µM throughout.
`COC(=O)C12C3C4C1C1C2C3C41C(=O)N(C(C)C)C(C)C` (stereo unspecified): the TGI in experiment [2], in [3], in experiment [4], in [5], in [6] and in experiment [7] was over 100 µM throughout. For the same compound, the TGI in experiment [8] and in [9] was over 100 µM throughout.
For the compound `O=C1OC2C=CC1C1(CCOC1=O)C2` (stereo unspecified), the TGI in experiment [1], in [2], in experiment [3], in [4], in experiment [5] and in experiment [6] was over 100 µM in each case. Moreover, the TGI in experiment [7] and in experiment [9] was over 100 µM each time.
On to `CC1=NN(C(=O)c2cc(Cl)cc([N+](=O)[O-])c2)C(=O)C1N=Nc1ccccc1C(=O)O` (stereo unspecified), for which the TGI in experiment [1], in experiment [2], in [4], in experiment [5], in experiment [6] and in experiment [7] was over 100 µM throughout. The TGI in experiment [8] and in [9] was over 100 µM in each case.
On to `CCC1(CC)C(=O)[N-]C(=O)[N-]C1=O.[Au+].[Au+].c1ccc([PH+](c2ccccc2)c2ccccc2)cc1.c1ccc([PH+](c2ccccc2)c2ccccc2)cc1`, for which the results for the GI50 in experiment [4], in experiment [7] and in experiment [8] were 937 nM, 1.05 µM and 1730 nM, respectively. In addition, the TGI in experiment [4] was 2.17 µM; in experiment [7], 2.26 µM; in [8], 3.11 µM.
`C/C=C/C(=O)[O-].N.N.N.N.N.[Co+3].[O-][Cl+3]([O-])([O-])[O-]`: the GI50 is over 100 µM in experiment [2]; over 100 µM in experiment [3]; over 100 µM in experiment [5]; over 100 µM in experiment [7]; over 100000 nM in experiment [8]; 84.7 µM in experiment [9]. The TGI in [2], in experiment [3], in experiment [5], in experiment [7], in [8] and in experiment [9] was over 100 µM each time.
For the compound `CCOC(=O)/C(C#N)=C(N)/C(=N\Nc1cccc(C(F)(F)F)c1)C(=O)OCC`, the TGI in [1], in experiment [3], in [4], in experiment [5], in [6] and in experiment [7] was over 100 µM each time. The TGI in experiment [8] and in [9] was over 100 µM in each case.
On to `O=C(O)c1oc2cccc3c2c1CCC3`, for which the TGI in experiment [2], in [4], in [5], in experiment [7], in experiment [8] and in experiment [9] was over 100 µM in each case.
On to `N#C/C(=C\c1cccnc1)c1nc2ccccc2o1`, for which the GI50 in [1] was over 100 µM; in [2], over 100 µM; in [10], over 100000 nM; in experiment [5] it was over 100 µM; in experiment [6] it was over 100 µM; in experiment [7], over 100 µM. Moreover, the GI50 in experiment [8] was over 100000 nM; in [9], over 100 µM. For the same compound, the TGI in experiment [1], in experiment [2], in experiment [10], in experiment [5], in experiment [6] and in experiment [7] was over 100 µM throughout. The TGI in experiment [8] and in [9] was over 100 µM each time.
`Cc1cccc(O)c(=O)c1`: the TGI in experiment [1] is over 100 µM; in [3], over 100 µM; in [4] it was over 100 µM; in [5] it was over 100 µM; in [6], 29.3 µM; in experiment [7], over 100 µM. The TGI in experiment [8] and in [9] was over 100 µM each time.
On to `O=C(/C=C/c1ccccc1)CCc1c(O)c2ccccc2oc1=O`, for which the TGI in [1], in experiment [2], in [10], in experiment [5], in [6] and in experiment [7] was over 100 µM throughout. Moreover, the TGI in experiment [8] and in experiment [9] was over 100 µM in each case.
Take `COc1cc(/C=C/c2cc(/C=C/c3ccc(O)c(OC)c3)[nH]c(=O)n2)ccc1O`: the GI50 in experiment [1] is 3.38 µM; in [2], 3.66 µM; in experiment [10], 2960 nM; in experiment [5] it was 2.55 µM; in [6] it was 3.48 µM; in [7], 3.7 µM. The GI50 in [8] is 2330 nM; in experiment [9] it was 1.72 µM. Also, the TGI in experiment [1] was over 100 µM; in experiment [2], 35.8 µM; in experiment [10] it was 11.4 µM; in experiment [5] it was 11.7 µM; in experiment [6], 22.5 µM; in [7] it was 36.1 µM. Besides, the results for the TGI in experiment [8] and in [9] were 4.89 µM and 12 µM, respectively.
`[N-]=[N+]=Nc1c(Br)c(=O)[nH]c(=O)n1COCCO`: the TGI in experiment [1], in experiment [2], in [4], in experiment [5], in experiment [7] and in experiment [9] was over 100 µM in each case.
For the compound `NC(=S)N/N=C\c1nccc2c(C(F)(F)C(F)(F)C(F)(F)F)cccc12`, the GI50 in experiment [1] is 0.183 µM; in [2], 0.346 µM; in experiment [10], 51.5 nM; in experiment [5] it was 0.054 µM; in experiment [6], 0.162 µM; in experiment [7], 0.0996 µM. In addition, the GI50 in experiment [8] was 46.6 nM; in [9] it was 0.124 µM. Besides, the TGI was 1.59 µM in experiment [1]; over 100 µM in experiment [2]; 7.54 µM in [10]; 8.8 µM in [5]; 1.12 µM in experiment [6]; 0.563 µM in experiment [7]. Moreover, the TGI in [8] was found to be 1.43 µM; in experiment [9], 2.87 µM.
`O=C1OC(c2ccccc2)=N/C1=C/N1CCCC1C(=O)O` (stereo unspecified): the TGI in [1], in experiment [2], in experiment [3], in experiment [4], in experiment [6] and in [7] was over 100 µM in each case. The TGI in experiment [8] and in experiment [9] was over 100 µM in each case.
Regarding `c1ccc(COc2cccc3cccnc23)cc1`, the TGI in [2], in [3], in experiment [4], in experiment [5], in [6] and in experiment [7] was over 100 µM throughout. For the same compound, the TGI in experiment [8] and in experiment [9] was over 100 µM each time.
For the compound `COc1ccc(N2C(=O)C(N3C(=O)C=CC3=O)C2C=O)cc1` (stereo unspecified), the TGI in [1], in [2], in experiment [3], in experiment [4], in [7] and in [8] was over 100 µM each time. Besides, the TGI in [9] was over 100 µM.
Turning to `C[C@H]1CC2=CC(=O)CC[C@]2(C)[C@H]2CC[C@@]3(C)[C@@H](CC[C@]3(C)O)[C@H]12`, the GI50 in experiment [1] is 24 µM; in experiment [2], 24.7 µM; in experiment [10], 24900 nM; in experiment [5] it was 19.3 µM; in experiment [6], 30 µM; in experiment [7] it was 14.8 µM. Besides, the GI50 in [8] is 39400 nM; in experiment [9], 40.2 µM. Besides, the TGI was 77.2 µM in [1]; over 88.1 µM in experiment [2]; over 76.7 µM in experiment [10]; 50.6 µM in experiment [5]; over 100 µM in experiment [6]; 33.3 µM in experiment [7]. The TGI in experiment [8] and in experiment [9] was over 100 µM each time.
